Test system: Dermal papilla cells, DPC
Experiment: Dermal papilla cell (DPC) proliferation, CCK-8
Type: cell-based
Settings: 10 μM, 24 hours
Experimental: After dispensing a serum medium with 10,000 cells/well of papillary cells (Dermal papilla cells, DPC) in a 96-well microplate, the cells were incubated overnight at 37° C. in a CO2 incubator. […] After removing the treated material from each cell and dispensing the CCK-8 solution thereto, the cells were incubated in the CO2 incubator at 37° C. for 2 hours, and absorbance was measured at 450 nm.

Nc1cc(N2CCCCC2)nc(N)[n+]1[O-] [M1, Minoxidil]
DPC proliferation rate (%): 118.97%

Source: patent US20220016183A1, “EXOSOME AND VARIOUS USES THEREOF” (PROSTEMICS CO., LTD., priority 2018, published 2022)
